# In patent publication US11679096B1, “Composition and method of treatment of elevated ApoE gene expression related health issues” (priority 2022, dated 2023):
# What was measured:
# [1] = system: MCF7 estrogen-dependent breast cancer cells; experiment: In vitro MCF7 cells proliferation (E-SCREEN) assay, MTT; assay type: cell-based, human; conditions: β-17-estradiol 0.5 μg/ml, 6 days
# Procedure: In vitro MCF7 cells proliferation (E-SCREEN) assay: MCF-7 cells (1×10^3 cells/well of a 96-well plate) were cultured with different micronutrients and plant extracts (0.5-5 μg/ml) with added β-17-estradiol (0.5 μg/ml) for 6 days at 37° C. Thereafter, medium in each well, including control wells, was replaced with 150 μl of tetrazolium MTT (3-(4, 5-dimethylthiazolyl-2)-2,5-diphenyltetrazolium bromide) ([…]). Wells that received DMSO only were used as negative control whereas that cells that receive only β-17-estradiol were use as positive control. Next, cells were incubated for 3 h at 37° C., the supernatant with MTT was removed, and the adherent cells were rinsed with PBS. Next, 150 μl of isopropanol was added to each well and the absorbance was measured at 570 nm using the microplate reader. Percentage of MTT reduction by metabolically active cell to purple formazan (reflecting cell proliferation rate) was calculated as following equation: Proliferation rate=[(ODsample-ODcontrol)/ODcontrol].
# We used MCF7 cancer cells which are epithelial cells isolated from the breast tissue of a patient with metastatic adenocarcinoma and depend on estrogen to proliferate. […]
# [2] = system: ApoE gene transcripts in AD fibroblasts (AG07887); experiment: ApoE gene transcription (RT-PCR) in fibroblasts from young Alzheimer's disease donor; assay type: cell-based, human; conditions: with IL1b, Mix 1 at 1 mcg/ml, estradiol 5 nM
# Procedure: (§1) ApoE and iNOS determination: Fibroblasts from Alzheimer disease (AD) […] (AG07887), and […] (AG08629) and/or Normal Human fibroblasts (NHDF) and/or lung cancer cell line A549 were grown on DMEM/F12 without phenol red (Gibco, USA). Media was supplemented with charcoal stripped, sterile-filtered 10% fetal bovine serum (Sigma-Millipore, USA Origen), and 1% penicillin-streptomycin.
# (§2) Cells were separated and splatted in 2 cm cell culture dishes and subjected to none or treated with IL-1βat 15 pg/ml, in the presence of Basic Mix (1 μg/ml), Mix 1-1 (1 μg/ml), Mix 1-2 (2 μg/ml), genistein (1 μg/ml), and estrogen E2 (5 nM) as indicated in each experiment. Treated cells were incubated for two hours or overnight followed by RNA isolation and purification for RT-PCR analysis.
# (§3) Total RNA was obtained by standard method RNeasy* Plus, (Qiagen, Germany) lysing cells with RLT Plus buffer according to the manufacturer's instructions. Equal amount of RNA extracted from each treated lysate was reverse transcribed in 20 microliters reactions with RT-QuantiTech kit (Qiagen, Germany). […] Amplification in 40 cycles and Ct quantification was carried out in CFX-Connect PCR-system from BioRad. Relative expression of the target gene data was analyzed using delta Ct method and compared to delta Ct of expression of a reference gene. […]
# [3] = system: ApoE gene transcripts in lung cancer cell line A549; experiment: ApoE gene transcription (RT-PCR) in lung cancer cells with IL-1β; assay type: cell-based, human; conditions: A549, IL-1 15 pg/ml; Mix 1 4 μg/ml, estrogen 5 nM, genistein 1 μg/ml
# Procedure: as §1, §2, §3
# [4] = system: ApoE gene transcripts in AD fibroblasts (AG08629); experiment: ApoE gene transcription (RT-PCR) in fibroblasts from old Alzheimer's disease donor; assay type: cell-based, human; conditions: with IL1b, Mix 1 at 1 mcg/ml, Basic Mix 1 ug/ml, estradiol 5 nM
# Procedure: as §1, §2, §3
# [5] = system: iNOS gene transcripts in lung cancer cell line A549; experiment: iNOS expression (RT-PCR) in lung cancer cells with IL-1β; assay type: cell-based, human
# Procedure: as §1, §2, §3
# [6] = system: ApoE gene transcripts in NHDF; experiment: ApoE gene transcription (RT-PCR) in normal human dermal fibroblasts; assay type: cell-based; conditions: overnight
# [7] = system: ApoE gene transcripts in Alzheimer disease (AD) fibroblasts; experiment: Effects of individual components on ApoE gene transcription in AD fibroblasts (young and old donors, not separated); assay type: cell-based, human; conditions: 1 ug/ml, overnight
# [8] = normal conditions (without IL1β)
# [9] = pro-inflammatory conditions (IL1b 15 pg/ml)
# [10] = pro-inflammatory condition (with IL1β)
molecule,measurement,setting,value
"C[C@]12CC[C@@H]3c4ccc(O)cc4CC[C@H]3[C@@H]1CC[C@@H]2O [estrogen, β-17-estradiol]","MCF7 proliferation rate, higher compared to normal control",[1],about 1.2 folds
same,decrease of ApoE transcription,[2],equal to control
same,effect on ApoE transcripts in human lung cancer cells,[3],inhibitory effect
same,decrease of ApoE transcript compared to no treatment control,[4],about 3 times
same,increase of iNOS expression over control,"[5]; A549, IL-1 15 pg/ml, estrogen 5 nM",more than 20 times
"CC(C)(CO)[C@@H](O)C(=O)NCCC(=O)O [vitamin B5, Pantothenic acid]",effect on ApoE expression,[6]; [8],moderate lowering effect
O=c1c(-c2ccc(O)cc2)coc2cc(O)ccc12 [Daidzein],effect of individual compounds on ApoE transcript,[7]; [9],ApoE increasing effects
O=c1c(O)c(-c2ccc(O)c(O)c2)oc2cc(O)cc(O)c12 [quercetin],effect of individual compounds on ApoE transcript,[7]; normal conditions (without IL1b),lowering effect
same,effect of individual compounds on ApoE transcript,[7]; [9],ApoE increasing effects
O=c1c(-c2ccc(O)cc2)coc2cc(O)cc(O)c12 [genistein],effect on ApoE transcripts in human lung cancer cells,[3],inhibitory effect
same,effect of individual compounds on ApoE transcript,[7]; [9],slight ApoE lowering effect
same,lowering of iNOS transcript,"[5]; A549, pro-inflammatory conditions (IL1b), 1 mcg/ml",comparable
"Cc1c(C)c2c(c(C)c1O)CC[C@@](C)(CCC[C@H](C)CCC[C@H](C)CCCC(C)C)O2 [Vitamin E, D-alpha-tocopherol]",effect on ApoE expression,[6]; [8],moderate lowering effect
phosphatidyl choline,effect on ApoE expression,[6]; [10],comparable
"O[C@H]1[C@H](O)[C@@H](O)[C@H](O)[C@@H](O)[C@H]1O [inositol, Inositol]",effect on ApoE expression,[6]; [10],comparable
